According to patent US20200390742A1, “CLINICALLY EFFICACIOUS ANTI-METHANOGENIC COMPOSITIONS AND USES” (Cedars-Sinai Medical Center, priority 2016, published 2020):
In brackets after ≈: the same amount, converted by molar mass. Where two headings read alike, the source gives them in different places. Marks after values point to notes of the source that are not given here. Peptide text beside a SMILES is read from it.

Columns and labels:
[1] = tested on: methane production by stool samples from IBS-C patients; experiment: Methane production by human stool in vitro; assay type: cell-based
Excerpt: Data are change from baseline (ΔCH4 ppm) in headspace methane. […] Error bars are SD. P values are significance of change from baseline (paired t-test).
The second principle, without wishing to be bound by theory, is to reduce the pre-systemic conversion of lovastatin lactone to the β-hydroxyacid metabolite. […] Conversion of lovastatin lactone to β-hydroxyacid occurs in stomach acid and through the action of plasma, intestinal and liver esterases; some conversion may also be catalysed by intestinal bacteria.
The potential methane-reducing effect of lovastatin lactone concentrations in the stool of healthy volunteers was estimated by comparison of stool concentrations to lovastatin lactone concentrations used to inhibit methane production in stool samples from an IBS-C patient in vitro.

[2] = tested on: IBS-C patients; conditions: published trial, 12 weeks; drug arm; cited from earlier work
[3] = cited from earlier work
[4] = pylorus-ligated rats, within 30 minutes; cited from earlier work
[5] = tested on: M. smithii; experiment: M. smithii colonized high-fat diet rats, qPCR of bowel segments; assay type: in vivo, Sprague-Dawley rats
Method: The rats were assessed for increased M. smithii by qPCR before and after the diet, and then divided into 3 groups. […] Each group was gavaged daily for 10 days. Three day stool collections were performed to assess average stool wet weight and daily variability prior to commencing the high fat diet, after 7 weeks of high-fat diet, and the final days of the lovastatin gavage (still on high-fat diet). On day 10 of the gavage, rats were euthanized and DNA was extracted from contents of ligated bowel segments (duodenum, jejunum, ileum, cecum and left colon). qPCR was performed using primers for total luminal bacteria and M. smithii.

[6] = physchem; conditions: for solubility: Solubility (room temp)
Excerpt: Lovastatin was produced, analyzed and released using methodology known in the art.

[7] = tested on: human and rat fecal bacterial enzyme fractions; conditions: 12 h incubation; cited from earlier work
[8] = cited from earlier work; remark: listed apart in the source
[9] = Binary stress testing of lovastatin with formulation excipients (HPLC); conditions: alone, over a range of conditions
Method: The compatibility of lovastatin drug substance with formulation excipients was evaluated in binary stress testing studies where 1:1 mixtures of lovastatin and each excipient were stored for 7 days under different conditions of temperature and relative humidity (RH). Samples were analyzed by HPLC (based on USP methods) at day 0 and day 7.

[10] = stool samples from IBS-C patients in vitro
[11] = Cecum, 1.5 mg/rat daily for 10 days
[12] = Duodenum, 1.5 mg/rat gavage daily for 10 days
[13] = Jejunum, 1.5 mg/rat daily for 10 days
[14] = Left Colon, 1.5 mg/rat daily for 10 days

## CC(C)c1nc(N(C)S(C)(=O)=O)nc(-c2ccc(F)cc2)c1/C=C/[C@@H](O)C[C@@H](O)CC(=O)O [rosuvastatin]
[1]; [10]
  inhibition of methane production: ineffective

## CCCCC(F)(F)[C@@]1(O)CC[C@H]2[C@@H](CC(=O)[C@@H]2CCCCCCC(=O)O)O1 [Lubiprostone]
[2]
  Abdominal Pain Response, % Subjects: 36.7 (25.2) %
  Bloating Response, % Subjects: 32.0 (25.1) %
  Overall Response, % Subjects: 26.3 (15.3) %

## CC(C)C[C@H](NC(=O)[C@@H]1CSSC[C@@H]2NC(=O)[C@H](CC(C)C)NC(=O)[C@H](CCC(=O)O)NC(=O)[C@@H](NC(=O)[C@H](CCC(=O)O)NC(=O)[C@H](CC(=O)O)NC(=O)[C@@H](N)CC(N)=O)CSSC[C@H](NC(=O)[C@H](C)NC(=O)[C@H](C(C)C)NC(=O)[C@H](CC(N)=O)NC(=O)[C@H](C(C)C)NC2=O)C(=O)N[C@@H]([C@@H](C)O)C(=O)NCC(=O)N1)C(=O)O [Plecanatide] (HELM PEPTIDE1{N.D.E.C.E.L.C.V.N.V.A.C.T.G.C.L}$PEPTIDE1,PEPTIDE1,4:R3-12:R3|PEPTIDE1,PEPTIDE1,7:R3-15:R3$$$V2.0)
[2]
  Diarrhea Incidence, % Subjects: 4.3 (1.0) %
  Overall Response, % Subjects: 25.7 (15.9) %

## CC(C)c1c(C(=O)Nc2ccccc2)c(-c2ccccc2)c(-c2ccc(F)cc2)n1CC[C@@H](O)C[C@@H](O)CC(=O)O [atorvastatin]
[1]; [10]
  inhibition of methane production: ineffective

## CC[C@H](C)C(=O)O[C@H]1C[C@@H](C)C=C2C=C[C@H](C)[C@H](CC[C@@H](O)C[C@@H](O)CC(=O)O)[C@H]21 [lovastatin β-hydroxyacid]
[3]; human, in vivo, po
  absorption of orally-administered dose: 82-100%
[1]; [10]
  inhibition of methane production: ineffective
[4]
  intragastric dose exiting the gastric juice: ~30%
[5]; [11]
  M. smithii/Total Bacteria: 0.14
[5]; [12]
  M. smithii/Total Bacteria: 1.41
[5]; [13]
  M. smithii/Total Bacteria: 0.29
[5]; [14]
  M. smithii/Total Bacteria: 0.0024

## C[C@@H]1NC(=O)[C@@H]2CCCN2C(=O)[C@H](CC(N)=O)NC(=O)[C@@H]2CSSC[C@H](N)C(=O)N[C@H]3CSSC[C@H](NC1=O)C(=O)N[C@@H]([C@@H](C)O)C(=O)NCC(=O)N[C@H](C(=O)N[C@@H](Cc1ccc(O)cc1)C(=O)O)CSSC[C@H](NC(=O)[C@H](Cc1ccc(O)cc1)NC(=O)[C@H](CCC(=O)O)NC3=O)C(=O)N2 [Linaclotide] (HELM PEPTIDE1{C.C.E.Y.C.C.N.P.A.C.T.G.C.Y}$PEPTIDE1,PEPTIDE1,1:R3-6:R3|PEPTIDE1,PEPTIDE1,2:R3-10:R3|PEPTIDE1,PEPTIDE1,5:R3-13:R3$$$V2.0)
[2]
  Abdominal Pain Response, % Subjects: 49.5 (36.0) %
  Bloating Response, % Subjects: 43.2 (26.8) %
  CSBM Response, % Subjects: 48.2 (26.1) %
  Diarrhea Incidence, % Subjects: 19.3 (2.8) %
  Overall Response, % Subjects: 33.6 (17.4) %

## CN1Cc2c(Cl)cc(Cl)cc2[C@H](c2cccc(S(=O)(=O)NCCOCCOCCNC(=O)NCCCCNC(=O)NCCOCCOCCNS(=O)(=O)c3cccc([C@@H]4CN(C)Cc5c(Cl)cc(Cl)cc54)c3)c2)C1 [Tenapanor]
[2]
  Abdominal Pain Response, % Subjects: 65.5 (48.3) %
  Bloating Response, % Subjects: 59.5 (41.6) %
  CSBM Response, % Subjects: 60.7 (33.7) %
  Diarrhea Incidence, % Subjects: 11.2 (0.0) %
  Overall Response, % Subjects: 50.0 (23.6) %

## CC[C@H](C)C(=O)O[C@H]1C[C@@H](C)C=C2C=C[C@H](C)[C@H](CC[C@@H]3C[C@@H](O)CC(=O)O3)[C@H]21 [Lovastatin]
[6]
  Solubility (room temp): methanol 28 mg/mL
[6]; organic solvent or mixture
  solubility: 16000 µg/mL (≈ 39.6 mM)
[6]; water
  solubility: 0.4 µg/mL (≈ 0.000989 mM)
[7]
  loss of lovastatin lactone: 8-19%
[8]
  pre-portal hydrolysis in vivo after oral administration: ~10%
[9]
  stability in binary stress testing: stable
[3]; human subjects, immediate release dosage form
  absorption of orally-administered dose: ~31%
[1]; 0.2 mg/g stool, regression
  inhibition of methane AUC0-270: 85-90%
  methane AUC0-270 as percentage of the control value: 10-15%
[1]; lovastatin lactone 0.04 mg/g stool, human stool in vitro
  reduction of methane production: ~60%
[1]; lovastatin lactone 0.21-0.25 mg/g stool, in vitro
  inhibition of methane production: ~90%
[1]; [10]
  inhibition of methane production: only effective statin inhibitor
[4]
  intragastric dose exiting the gastric juice: ~30%
[5]; [11]
  M. smithii/Total Bacteria: 0.20
[5]; [12]
  M. smithii/Total Bacteria: 1.30
[5]; Ileum, 1.5 mg/rat daily for 10 days, listed as Lactone
  M. smithii/Total Bacteria: 0.19*
[5]; Ileum, 1.5 mg/rat daily for 10 days, listed as lovastatin lactone
  M. smithii/Total Bacteria: reduced
[5]; [13]
  M. smithii/Total Bacteria: 0.12
[5]; [14]
  M. smithii/Total Bacteria: 0.0029
